Assay results published in US20250214973A1, “1,4,5-TRISUBSTITUTED-1,2,3-TRIAZOLES AND USES THEREOF” (UNIVERSITY OF PUERTO RICO, priority 2022, published 2025).

Assays:
[1] = test system: MCF-7; assay: Initial screening, SRB assay GI50; assay type: cell-based; conditions: Homo sapiens, MCF7, 48 hrs
Description: (§1) For initial screening, the GIso of compounds 4a-4h in the cell lines MDA-MB-231, MDA-MB-435 and MCF-7 was determined via the SRB-assay for 48 hrs as follows:
(§2) A stock solution of compounds was prepared at 50 mM in 100% DMSO. For cells preparation, a flask of 75 cm^2 or 25 cm^2 were used for 2.6×10^5 cells/mL or 1.44×10^5 cells/mL, respectively, with an 80-90% of confluence. Cells were washed with PBS and trypsinized. The concentration of cells was determined using a 1:2 dilutions with Trypan Blue and a hemocytometer. After cell count, the concentration was adjusted to have a 7.0-10.0×10^4 cells/mL. Approximately 100 μL of cells suspension, compounds, control positive and control negative were added in triplicates to a 96 well plate. Positive control used was doxorubicin, and the negative control was DMSO 0.1%. All compounds (4a-h) at 50, 25, 12.5, 6.3, and 1.6 μM were incubated with cells at 37° C. for 48 hrs. For fixation, cold TCA 50% was used and incubated at 4° C. for 1 h. Wells were washed and dried prior to tincture with 100 μL of SRB 0.4%. To remove excess of SRB, acetic acid was used. For analysis, TRIS-BASE Solution (pH=10.5) was used and shaken prior to reading using an ELISA reader at 540 nm and the software SoftMax Pro 4.8. For each compound, 50% growth inhibition (GI50) was calculated from Sigmoidal dose-response curves (variable-slope) that were generated with data obtained from experiments carried out in triplicates (GI50 values were generated with GraphPad Prism V. 6.02, GraphPad Software, Inc.).

[2] = test system: MDA-MB-231; assay: Initial screening, SRB assay GI50; assay type: cell-based; conditions: Homo sapiens, 48 hrs
Description: as §1, §2

[3] = test system: MDA-MB-435; assay: Initial screening, SRB assay GI50; assay type: cell-based; conditions: Homo sapiens, 48 hrs, read-out: MDA-MB435 GI50
Description: as §1, §2

[4] = test system: MDA-MB-231; assay: Initial screening, inhibition of migration (wound gap); assay type: cell-based; conditions: Homo sapiens; for inhibition at 0.5 µM: read-out: Inh. of migration (converted)
Description: In addition, the inhibition of migration of MDA-MB-231 was determined via the following procedure:
Prior to assays, cells were grown until 80-90% confluence was observed. We used a 75 cm^2 flask for 2.6×10^5 cells/mL in 10 mL and for a 25 cm^2 flask 1.44×10^5 cells/mL in 5 mL. The cells were washed with PBS to remove all traces of FBS. We added 2 mL for a 25 cm^2 flasks or 4 mL for a 75 cm^2 flasks trypsin, and incubated 5-10 min at 37° C. At the end of the incubation time, cells were re-suspended and counted with hemocytometer using 1:2 dilutions with Trypan blue. Subsequently, cell viability was calculated. In a 12 well tissue culture plate, we used the plastic pattern to draw a fine space with a fine marker on the bottom of the plate. Cells were seeded at 1.5-2.2×10^5 cells/mL in 1 mL and incubated for 24 h. Cells were then rinsed with PBS and incubated in starving media (0.5% FBS) overnight. All controls and drugs were tested in triplicate. The negative control for each drug was prepared according to the drug's DMSO concentration. […] The wound was made using a sterile pipette tip of 200 μL. Cells were then rinsed very gently with media without FBS and media with negative controls was added. After a 24 h incubation, the gap distance was evaluated using the software Lumera Infinity Analyze 6.4.0. Pictures were taken at 0, 8, 12 and 24 h using a 10× objective in an Inverted Laboratory Microscope Leica DM IL LED, and an Infinity1-3 3.1 Megapixel USB 2.0 camera CMOS. The percentage of migration was calculated using the following formula: […]

[5] = test system: MDA-MB-435; assay: Cell viability assay (MTT); assay type: cell-based, human; conditions: for GI50: MTT, 72 hrs, read-out: GI50 MDA-MB-435; for GI50 / effect on viability of MDA-MB-435: 0-1000 nM; for effect on viability of MDA-MB-435: 72 h
Description: Cells plated at equal density were treated at 500 nM of compounds. After 72 hours, cell viability was measured by a MTT assay. n=3; * p<0.05, ** p<0.01, *** p<0.001.
(§3) Cells plated at equal density were treated at 250 nM of 4c at 250 nM.
(§4) Data from 3 biologic replicates each with 2 technical replicates. Four parameter dose-response curves generated using GraphPad Prism are shown.
[…]. GI50 was calculated using Graph pad Prism.
(§5) […] Using CellTiter 96 Non-Radioactive Cell Proliferation Assay (Promega, Corp.) according to manufactures' instructions, formazan was used as an indicator of viable cells at an absorbance 570 nm in a Tecan Microplate Reader M100. Data was calculated as fold change from vehicle and fitted using the 4′parameter logic nonlinear regression model in GraphPad Prism software. (n=3 biologic replicates: with 3 technical replicates each).
A range of compounds were tested by MTT assays for cell viability in MDA-MB-231 triple negative breast cancer (TNBC) cells and MDA-MB-435 HER2++ cancer cells. […].

[6] = test system: MDA-MB-231; assay: Cell viability assay (MTT); assay type: cell-based; conditions: Homo sapiens; for inhibition at […]: MDA-MB-231, 250 nM for 48 hours (footnote a; title says 500 nM), read-out: % growth inhibition MDA-MB-231
Description: Cells plated at equal density were treated at 500 nM of compounds. […]
as §3, §4
Cell viability relative to vehicle (100%) is shown.
as §5
A range of compounds were tested by MTT assays for cell viability in MDA-MB-231 triple negative breast cancer (TNBC) cells and MDA-MB-435 HER2++ cancer cells.

[7] = test system: Rac; assay: Rac activation pulldown (GST-CRIB of PAK) in MDA-MB-435 cells; assay type: cell-based, human; conditions: 24 hours
From the text: (§6) Cells were lysed and equal amounts of proteins were subjected to pull-down assays using a GST-fusion protein of the Cdc42-rac interactive binding (CRIB) domain of P21-activated kinase (PAK). The pulldowns of Rac.GTP and whole cell lysates were western blotted with a pan Rac1/2/3 antibody.
as §6

[8] = target: T1, Vav2 binding to Rac1 (Homo sapiens, UniProt P63000, G15A); assay: Rac1 GEF assay, Rac1(G15A) pulldown; conditions: 8 μM, MDA-MB-231 lysates
T1 construct: purchased Cell Biolabs, San Diego; CA; host or cells: Vav2 from MDA-MB-231 cell lysate
Description: GST-Rac1 (G15A) beads were pre-incubated with vehicle (0.1% DMSO), or 8 μM EHop-016, or 250 nM Compound 4c for 1 hour followed by incubation with MDA-MB-231 cell lysates (equal total protein). Representative Western blot for Rac1(G15A) or pulldowns immunostained for Vav2 is shown (n=3).
MDA-MB-231 cells in culture medium were lysed in 1% Triton X-100, 20 mM HEPES, pH 7.4, 150 mM NaCl, 5 mm MgCl2, and protease inhibitors and processed. Equal amounts of protein from cleared lysates were incubated for 1 h at 4° C. with glutathione-agarose beads conjugated to GST-Rac1(G15A) nucleotide-free mutant (Cell Biolabs, San Diego. CA) that were preincubated (for 1 h) with vehicle or 8 μm EHop-016 or 0.25 μM Compound 4c. The beads were washed, and the lysates and pull-downs were immunoblotted for Tiam-1, Trio, Ect2, p-REX, or Vav2.

| SMILES | GI50 [1] [µM] | GI50 [2] [µM] | GI50 [3] [µM] | GI50 ([5]; Homo sapiens, MDA-MB-435) [µM] | inhibition at 0.5 µM [4] [%] | inhibition at […] [6] [%] | effect on viability of MDA-MB-435 [5] | further results |
| --- | --- | --- | --- | --- | --- | --- | --- | --- |
| CCn1c2ccccc2c2cc(-n3nnc(C#N)c3-c3ccccc3)ccc21 [Compound 5, 1-(9-ethyl-9H-carbazol-3-yl)-5-phenyl-1H-1,2,3-triazole-4-carbonitrile] | – | – | – | 0.045 | – | 46 | – | cytotoxicity at […] ([6]; 250 nM, 48h, text prints MDA-MB-435 TNBC, read-out: inhibition of cell viability): 50%; cytotoxicity relative to MBQ-167 ([5]; MDA-MB-435, 72 h GI50): ~3 ×; % Rac inhibition ([7]; 10 nM): ~30%; % Rac inhibition ([7]; 50 nM): > 90%; % Rac inhibition ([7]; 100 nM): > 90% |
| CCOC(=O)c1nnn(-c2ccc3c(c2)c2ccccc2n3CC)c1-c1ccccc1 [Compound 6, Ethyl 1-(9-ethyl-9H-carbazol-3-yl)-5-phenyl-1H-1,2,3-triazole-4-carboxylate] | – | – | – | ~5 | – | 32 | reduced the viability | – |
| CCn1c2ccccc2c2cc(-n3nnc(C(=O)O)c3-c3ccccc3)ccc21 [Compound 7, 1-(9-Ethyl-9H-carbazol-3-yl)-5-phenyl-1H-1,2,3-triazole-4-carboxylic acid] | – | – | – | – | – | 29 | reduced the viability | – |
| CCn1c2ccccc2c2cc(-n3nnc(C(=O)N4CCOCC4)c3-c3ccccc3)ccc21 [Compound 8, (1-(9-ethyl-9H-carbazol-3-yl)-5-phenyl-1H-1,2,3-triazol-4-yl) (morpholino) methanone] | – | – | – | ~1 | – | -11 | did not have an effect | % Rac inhibition ([7]; 250 nM): 250 nM : <20% |
| CCn1c2ccccc2c2cc(-n3nnc(C(=O)NCCCN4CCOCC4)c3-c3ccccc3)ccc21 [Compound 9, 1-(9-ethyl-9H-carbazol-3-yl)-N-(3-morpholinopropyl)-5-phenyl-1H-1,2,3-triazole-4-carboxamide] | – | – | – | > 10 | – | 13 | reduced the viability | % Rac inhibition ([7]; 250 nM): 250 nM : <20% |
| CCn1c2ccccc2c2cc(-n3nnc(C(=O)c4cccs4)c3-c3ccccc3)ccc21 [Compound 10, (1-(9-Ethyl-9H-carbazol-3-yl)-5-phenyl-1H-[1,2,3]triazol-4-yl)-thiophen-2-yl-methanone] | 0.19 | 0.915 | 23.3 | – | – | – | – | – |
| CCn1c2ccccc2c2cc(Nc3ccnc(NCCCN4CCOCC4)n3)ccc21 [EHop-016, reference compound] | – | – | – | – | – | – | – | inhibition of Vav2 binding to Rac1 [8]: ~80% |

Now from value to compound, other results behind:

| GI50 [1] [µM] | GI50 [2] [µM] | GI50 [3] [µM] | GI50 ([5]; Homo sapiens, MDA-MB-435) [µM] | SMILES | inhibition at 0.5 µM [4] [%] | inhibition at […] [6] [%] | effect on viability of MDA-MB-435 [5] | further results |
| --- | --- | --- | --- | --- | --- | --- | --- | --- |
| 20.6 | 17.5 | 0.36 | – | CCn1c2ccccc2c2cc(-n3nnc(C(O)c4ccco4)c3-c3ccccc3)ccc21 (centres unmarked) [Compound 4a, (1-(9-ethyl-9H-carbazol-3-yl)-5-phenyl-1H-1,2,3-triazol-4-yl) (furan-2-yl) methanol] | – | – | – | inhibition at 6.6 µM ([4]; at 6.6 μM, read-out: Inh. of migration): 55 ± 13.6%; cytotoxicity at 0.5 µM ([5]; Homo sapiens, MDA-MB-435, 500 nM, 72 hours, read-out: decrease in cell viability, MDA-MB-435): ~80% |
| 12 | 20.4 | 19.6 | – | CCn1c2ccccc2c2cc(-n3nnc(C(O)c4cccs4)c3-c3ccccc3)ccc21 (centres unmarked) [Compound 4d, (1-(9-ethyl-9H-carbazol-3-yl)-5-phenyl-1H-1,2,3-triazol-4-yl) (thiophen-2-yl) methanol] | 8.7 | – | – | inhibition at 4.1 µM ([4]; at 4.1 μM, read-out: Inh. of migration): 57.5 ± 10.6% |
| 10.6 | 26.2 | 32.9 | – | CCn1c2ccccc2c2cc(-n3nnc(C(O)c4ccc(OC)cc4)c3-c3ccccc3)ccc21 (centres unmarked) [Compound 4e, (1-(9-ethyl-9H-carbazol-3-yl)-5-phenyl-1H-1,2,3-triazol-4-yl) (4-methoxyphenyl) methanol] | 36.1 | – | – | inhibition at 5.3 µM ([4]; at 5.3 μM, read-out: Inh. of migration): 57 ± 12.3% |
| 9.7 | 11.2 | 7.5 | – | CCn1c2ccccc2c2cc(-n3nnc(C(O)c4ccc([N+](=O)[O-])cc4)c3-c3ccccc3)ccc21 (centres unmarked) [Compound 4f, (1-(9-ethyl-9H-carbazol-3-yl)-5-phenyl-1H-1,2,3-triazol-4-yl) (4-nitrophenyl) methanol] | 22.1 | – | – | inhibition at 2.2 µM ([4]; at 2.2 μM, read-out: Inh. of migration): 61.1 ± 6.12% |
| 13.5 | 7.9 | 2.2 | – | CCn1c2ccccc2c2cc(-n3nnc(C(O)c4ccc(C)cc4)c3-c3ccccc3)ccc21 (centres unmarked) [Compound 4g, (1-(9-ethyl-9H-carbazol-3-yl)-5-phenyl-1H-1,2,3-triazol-4-yl) (p-tolyl) methanol] | – | – | – | inhibition at 1.6 µM ([4]; at 1.6 μM, read-out: Inh. of migration): 15.1 ± 10.7% |
| 9.6 | 24.3 | 22.6 | – | CCn1c2ccccc2c2cc(-n3nnc(C(O)c4ccccc4)c3-c3ccccc3)ccc21 (centres unmarked) [Compound 4h, (1-(9-ethyl-9H-carbazol-3-yl)-5-phenyl-1H-1,2,3-triazol-4-yl) (phenyl) methanol] | 11.1 | – | – | inhibition at 4.9 µM ([4]; at 4.9 μM, read-out: Inh. of migration): 65.4 ± 11.9% |
